Data set [1] relates to model of antigen-induced arthritis. On the set-up: method as in PMID 33493655, PMID 30419493. Conditions: increasing neutrophil apoptosis and efferocytosis; cited from earlier work.
The target in data set [2] is T1, FPR2 (Homo sapiens, UniProt P25090).
T1 construct: expressed in transfected cells; host or cells: HL60 (human promyelocytic leukemia), stably transfected; gift from Dr. Marie-Josephe Rabiet
T1 sequence (P25090 1-351): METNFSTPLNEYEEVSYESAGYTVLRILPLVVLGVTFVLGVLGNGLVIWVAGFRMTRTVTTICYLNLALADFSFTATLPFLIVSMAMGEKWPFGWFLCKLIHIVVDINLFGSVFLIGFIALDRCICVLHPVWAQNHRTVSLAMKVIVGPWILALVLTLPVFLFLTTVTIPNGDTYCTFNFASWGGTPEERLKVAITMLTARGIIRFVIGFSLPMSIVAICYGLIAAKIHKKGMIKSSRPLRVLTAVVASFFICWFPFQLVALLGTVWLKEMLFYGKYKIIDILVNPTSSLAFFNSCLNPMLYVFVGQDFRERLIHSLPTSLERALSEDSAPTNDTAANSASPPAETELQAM
Put plainly: Ca2+ mobilization in FPR2-transfected HL60 cells. The format is cell-based. The settings on record: for selectivity index (SI) FPR1/FPR2: ratio of EC50 FPR1-HL60 / FPR2-HL60; for Emax: HL-60, read-out: FPR2-HL60 Efficacy (converted). Background: Calcium assays in cells follow changes in intracellular calcium, usually with a dye or a luminescent sensor.
Experimental: (§2) Human promyelocytic leukemia HL60 cells stably transfected with FPR1 (FPR1-HL60 cells) or FPR2 (FPR2-HL60 cells) (kind gift from Dr. Marie-Josephe Rabiet, Université Joseph Fourier, Grenoble, France) were cultured in RPMI 1640 medium supplemented with 10% heat-inactivated fetal calf serum, 10 mM HEPES, 100 μg/mL streptomycin, 100 U/mL penicillin, and G418 (1 mg/mL). G418 was removed in the last round of culture before assays were performed.

Data set [3] deals with T2, FPR1 (Homo sapiens, UniProt P21462).
T2 construct: expressed in transfected cells; host or cells: HL60 (human promyelocytic leukemia), stably transfected; gift from Dr. Marie-Josephe Rabiet
T2 sequence (P21462 1-350): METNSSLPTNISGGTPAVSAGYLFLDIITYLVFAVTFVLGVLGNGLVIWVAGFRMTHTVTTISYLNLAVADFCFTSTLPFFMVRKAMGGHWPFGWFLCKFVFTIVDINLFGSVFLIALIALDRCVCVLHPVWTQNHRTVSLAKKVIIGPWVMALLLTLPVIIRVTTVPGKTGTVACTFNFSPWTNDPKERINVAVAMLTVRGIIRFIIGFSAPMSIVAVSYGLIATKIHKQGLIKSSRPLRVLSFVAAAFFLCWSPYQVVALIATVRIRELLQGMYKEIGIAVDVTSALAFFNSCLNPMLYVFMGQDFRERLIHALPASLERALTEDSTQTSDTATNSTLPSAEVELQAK
Also on record: method as in PMID 32388428. The settings on record: Ca2+ mobilization; read-out: FPR1-HL60 EC50; cited from earlier work.

The target in data set [4] is T1, FPR2. Also on record: method as in PMID 32388428. The settings on record: Ca2+ mobilization; read-out: FPR2-HL60 EC50; cited from earlier work.
The test system of data set [5] is human neutrophils (hPMN). Also on record: method as in PMID 32388428. The settings on record: Ca2+ mobilization; cited from earlier work.
Data set [6] concerns animal models (collagen-induced and antigen-induced arthritis) of RA. On the set-up: method as in PMID 16697190, PMID 29879657. Conditions: dose of 30 mg/kg (i.p.); cited from earlier work.
The target in data set [7] is T2, FPR1. Put plainly: Ca2+ mobilization in FPR1-transfected HL60 cells. The format is cell-based. Conditions: for Emax: HL-60, read-out: FPR1-HL60 Efficacy (converted).
Experimental: as §2
For data set [8], the system named is human neutrophils (hPMN). Nature of the data set: Ca2+ mobilization in human neutrophils (hPMN). The data set is classed as cell-based. Conditions: Neutrophil; for Emax: read-out: hPMN Efficacy (converted). The source says: Blood was collected from healthy donors in accordance with a protocol approved by the Institutional Review Board at Montana State University. Neutrophils were purified from the blood using dextran sedimentation, followed by Histopaque 1077 gradient separation and hypotonic lysis of red blood cells. Isolated neutrophils were washed twice and resuspended in HBSS^-. Neutrophil preparations were routinely >95% pure, as determined by light microscopy, and >98% viable, as determined by trypan blue exclusion.
Changes in intracellular Ca^2+ were measured with a FlexStation II scanning fluorometer (Molecular Devices, Sunnyvale, CA, USA). The cells, suspended in Hank’s balanced salt solution without Ca^2+ and Mg^2+ but with 10 mM HEPES (HBSS^−), were loaded with 1.25 μg/mL Fluo-4 AM dye and incubated for 30 min in the dark at 37 °C. After dye loading, the cells were washed with HBSS^- containing 10 mM HEPES, resuspended in HBSS^+ containing Ca^2+, Mg^2+, and 10 mM HEPES (HBSS^+), and aliquoted into the wells of flat-bottom, half-area-well black microtiter plates (2 × 10^5 cells/well). For the evaluation of direct agonist activity, compounds of interest were added from a source plate containing dilutions of test compounds in HBSS^+, and changes in fluorescence were monitored (λex = 485 nm, λem = 538 nm) every 5 s for 240 s at room temperature after the automated addition of compounds. Maximum change in fluorescence during the first 3 min, expressed in arbitrary units over baseline, was used to determine a response. […] Curve fitting (5–6 points) and calculation of median effective inhibitory concentrations (IC50) were performed by nonlinear regression analysis of the dose–response curves generated using Prism 9 (GraphPad Software, Inc., San Diego, CA, USA).

The subject of data set [9] is CFA-treated rats. Nature of the data set: Paw pressure test in CFA-induced inflammatory arthritis. The format is in vivo, rat. Conditions: 10 mg/kg p.o. daily for 7 days, day 8 (24 h after last dose), CFA + vehicle 35.2 ± 1.6 g, sham + vehicle 66.4 ± 2.3 g, mean ± SEM, five rats. Here is the method:
(§1) Male Sprague Dawley rats (Envigo, Varese, Italy) weighing approximately 200–250 g at the beginning of the experimental procedure were used. Animals were housed in Ce.S.A.L. (Centro Stabulazione Animali da Laboratorio, University of Florence) and used at least one week after their arrival. Four rats were housed per cage (size 26 × 41 cm^2); animals were fed a standard laboratory diet, given tap water ad libitum, and kept at 23 ± 1 °C with a 12 h light/dark cycle, light at 7 a.m. All animal manipulations were carried out according to the Directive 2010/63/EU of the European parliament and of the European Union council (22 September 2010) on the protection of animals used for scientific purposes. The ethical policy of the University of Florence complies with the Guide for the Care and Use of Laboratory Animals of the US National Institutes of Health (NIH Publication No. 85–23, revised 1996; University of Florence assurance number: A5278-01). Formal approval to conduct the experiments described was obtained from the Italian Ministry of Health (No. 517/2017, 06/04/2017) and from the Animal Subjects Review Board of the University of Florence. Experiments involving animals have been reported according to ARRIVE guidelines. […]
Nociceptive threshold was determined with an analgesimeter (Ugo Basile, Varese, Italy). […]

Data set [10] has as its system CFA-treated rats. Put plainly: Incapacitance test in CFA-induced inflammatory arthritis. The format is in vivo, rat. The settings on record: 10 mg/kg p.o. daily for 7 days, day 8, CFA + vehicle 57.2 ± 4.0 g, sham + vehicle 3.6 ± 2.5 g, mean ± SEM, five rats. The procedure: as §1, with “A5278-01).” for “A5278-01). Formal approval to conduct the experiments described was obtained from the Italian Ministry of Health (No. 517/2017, 06/04/2017) and from the Animal Subjects Review Board of the University of Florence. Experiments involving animals have been reported according to ARRIVE guidelines.”
Weight bearing changes were measured using an Incapacitance Apparatus (Linton Instrumentation, UK), detecting changes in postural equilibrium after a hind limb injury. […] Data are expressed as the difference between the weight applied to the limb contralateral to the injury and the weight applied to the ipsilateral one (Δ weight).

Data set [11] deals with rat model of rheumatoid arthritis. On the set-up: method as in PMID 32388428. The settings on record: dose of 30 mg/kg/day; cited from earlier work.

SMILES strings stand for the structures. Read-outs that look alike come from different tables or passages of the source.

As for `CCC[C@@H](O)c1c(/C=C/[C@@H](O)[C@@H](O)CCCC(=O)OC)nc(C)n1C` [AT-01-KG], the anti-inflammatory activity result in data set [1] is recorded as “anti-inflammatory activity”.

Consider `CCOC(=O)c1cc(C#N)c(=O)n(CC(=O)Nc2ccc(Br)cc2)c1C` [AMC4, reference compound], for which the “selectivity index (SI) FPR1/FPR2” value at FPR2 [2] is 8. Further, the EC50 (as a rule, the midpoint of the concentration-response curve) at FPR1 [3] is 3 ± 0.4 µM; at FPR2 [4], 0.38 ± 0.09 µM; with human neutrophils (hPMN) [5] it was 0.83 ± 0.24 µM.

For `CC(C)c1c(NC(=O)Nc2ccc(Cl)cc2)c(=O)n(-c2ccccc2)n1C` [Cpd43], in data set [6], the “effect on arthritis (tissue inflammation, cartilage damage, synovitis)” value was “significantly reducing the tissue inflammation, cartilage damage, and synovitis”.

For `CCCOC(=O)c1cc(C#N)c(=O)n(CC(=O)Nc2ccc(Br)cc2)c1C` [Compound 4a, Propyl 1-{2-[(4-bromophenyl)amino]-2-oxoethyl}-5-cyano-2-methyl-6-oxo-1,6-dihydropyridine-3-carboxylate], the melting point (commonly the temperature of the solid-liquid transition) was 193 to 195 °C (dec.). Also, on FPR1 [7], it took 16.3 ± 3.4 µM to reach a half-maximal effect (EC50) and the Emax is 115%. Besides, at FPR2 [2], the midpoint of the response, the EC50, lay at 3.2 ± 0.6 µM and the Emax was 140%. Also, in the data set on human neutrophils (hPMN) [8], a half-maximal response (EC50) required 6.4 ± 1.7 µM and the Emax was 115%.

Consider `CNC(=O)c1cc(C#N)c(=O)n(CC(=O)Nc2ccc(Br)cc2)c1C` [Compound 8a, 1-{2-[(4-Bromophenyl)amino]-2-oxoethyl}-5-cyano-N,2-dimethyl-6-oxo-1,6-dihydropyridine-3-carboxamide], for which the melting point was > 300 °C (dec.). On FPR1 [7], the concentration for a half-maximal effect (EC50) turned out to be 2.2 ± 0.6 µM and the Emax is 105%. On FPR2 [2], the EC50 amounted to 1.3 ± 0.4 µM and the Emax is 115%. In the data set on human neutrophils (hPMN) [8], the concentration for a half-maximal effect (EC50) was found to be 4.9 ± 1.2 µM and the Emax was 105%.

As for `CCCCNC(=O)c1cc(C#N)c(=O)n(CC(=O)Nc2ccc(Br)cc2)c1C` [Compound 8d, 1-{2-[(4-Bromophenyl)amino]-2-oxoethyl}-N-butyl-5-cyano-2-methyl-6-oxo-1,6-dihydropyridine-3-carboxamide], the melting point is 261 to 263 °C (dec.). At FPR1 [7], the half-maximal effective concentration (EC50) was 9.1 ± 1.4 µM and the Emax is 140%. For the same compound, on FPR2 [2], a half-maximal response (EC50) required 1 ± 0.4 µM, the Emax is 130% and the “selectivity index (SI) FPR1/FPR2” value is reported as 9. Moreover, in the data set on human neutrophils (hPMN) [8], the EC50 amounted to 4 ± 0.9 µM and the Emax was 70%.

For the compound `COc1cccc(-c2cc(C#N)c(=O)n(CC(=O)Nc3ccc(Br)cc3)c2C)c1` [AMC3], the “pain threshold (paw pressure test)” value in the data set with CFA-treated rats [9] is 52.4 ± 2.8 g. For the same compound, the “postural unbalance, Δ Weight (incapacitance test)” value with CFA-treated rats [10] turned out to be 34.6 ± 3.8 g. Besides, the EC50 in the data set on human neutrophils (hPMN) [5] is 0.39 ± 0.17 µM. In addition, in data set [11], the “effect on pain hypersensitivity” value was “completely control pain hypersensitivity”.

Values taken from publication PMC8587000, “Pyridinone Derivatives as Interesting Formyl Peptide Receptor (FPR) Agonists for the Treatment of Rheumatoid Arthritis” (Molecules, 2021).
